Measured values taken from BindingDB's records for doi:10.1016/j.chembiol.2016.11.013 (Peking University, 2017).

Legend:
[1] = target: T1, D-3-phosphoglycerate dehydrogenase (Homo sapiens, UniProt O43175); test: PHGDH Enzyme Assay; details: pH 7.1
T1 sequence (O43175 whole entry): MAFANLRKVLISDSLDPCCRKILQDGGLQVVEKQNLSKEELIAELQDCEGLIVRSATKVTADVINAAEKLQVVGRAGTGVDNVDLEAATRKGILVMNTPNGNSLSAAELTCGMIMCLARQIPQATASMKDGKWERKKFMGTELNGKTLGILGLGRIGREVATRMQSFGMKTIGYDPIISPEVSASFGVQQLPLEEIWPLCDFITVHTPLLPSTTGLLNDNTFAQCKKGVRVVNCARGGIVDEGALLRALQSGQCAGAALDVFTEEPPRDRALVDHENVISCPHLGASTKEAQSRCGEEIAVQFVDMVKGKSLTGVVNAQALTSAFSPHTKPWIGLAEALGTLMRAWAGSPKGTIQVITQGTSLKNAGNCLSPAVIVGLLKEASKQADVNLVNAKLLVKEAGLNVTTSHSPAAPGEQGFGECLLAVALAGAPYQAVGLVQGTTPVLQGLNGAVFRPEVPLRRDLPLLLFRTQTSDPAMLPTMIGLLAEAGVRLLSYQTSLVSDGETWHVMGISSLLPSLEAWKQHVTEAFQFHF
Method: (§1) To evaluate the effects of compounds on PHGDH activity, compounds were first pre-incubated with enzyme samples in the assay buffer (25 mM HEPES, pH 7.1, 400 mM KCl, 5 μM phosphopyridoxa (PLP), 0.5 mM α-ketoglutarate, 150 μM NADH, 1 mM DTT) for 10 min at 25℃, then the reaction was started by adding L-phospho-O-serine (Pser). […] Fluorescence signals were recorded for 3 min with a kinetics mode program using on a plate reader (Synergy, Biotek).

[2] = target: T1, D-3-phosphoglycerate dehydrogenase; test: PHGDH SPR Assay; details: pH 7.4
Method: The binding affinities of compounds towards PHGDH were assayed using the SPR-based Biacore T200 instrument (GE Healthcare). PHGDH was immobilized on a CM5 sensor chip by using standard amine-coupling at 25℃ with running buffer PBS-P (20 mM phosphate buffer, […], 0.05% surfactant P-20, pH 7.4), respectively, as described previously. A reference flow cell was activated and blocked in the absence of PHGDH. […] Regeneration was achieved by extended washing with the running buffer after each sample injection.

[3] = target: T2, D-3-phosphoglycerate dehydrogenase [3-314] (Homo sapiens, UniProt O43175); test: PHGDH Enzyme Assay; details: pH 7.1
T2 construct: 3-314
T2 sequence (O43175 whole entry): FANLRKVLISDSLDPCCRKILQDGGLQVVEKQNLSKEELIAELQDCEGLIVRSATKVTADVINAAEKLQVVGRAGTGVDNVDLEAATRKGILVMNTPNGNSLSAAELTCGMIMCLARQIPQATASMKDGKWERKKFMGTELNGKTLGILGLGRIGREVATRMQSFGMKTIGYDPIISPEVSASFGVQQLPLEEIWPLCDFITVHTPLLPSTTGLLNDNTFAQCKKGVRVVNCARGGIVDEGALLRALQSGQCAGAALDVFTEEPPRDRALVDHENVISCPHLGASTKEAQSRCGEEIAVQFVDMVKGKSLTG
Method: as §1

Row | IC50 [1] [µM] | Kd [2] [µM] | IC50 [3] [µM] | Kd ([2]; read-out: Kd) [µM] | SMILES
1 | 49.5 |  |  |  | O=C1N[C@H]2[C@H](CS[C@H]2CCCCC(=O)OCc2cc([N+](=O)[O-])cc(/C=N/NC(=O)c3ccc(O)cc3O)c2O)N1 [PKUMDL-WQ-2101-Biotin]
2 | 44.9 | 0.56 | 30.1 |  | O=C(N/N=C/c1cc([N+](=O)[O-])ccc1O)c1ccc(O)cc1O [PKUMDL-WQ-2101]
3 |  |  | 35 | 66.9 | CCNC(=S)N/N=C\c1ccc(-c2ccc(C(=O)O)c(Cl)c2)o1 [PKUMDL-WQ-2201]
4 | 42 |  |  | 29 | Cc1c(/N=N/c2cccc(C(=O)O)c2)c(O)[nH]c(=O)c1C#N [PKUMDL-WQ-2202]
5 | 28.1 |  |  | 7.22 | O=C(O)CSC1=C(SCC(=O)O)C(=O)C(SCC(=O)O)=C(SCC(=O)O)C1=O [PKUMDL-WQ-2203]
